Here are results for 7 molecules from patent US4281136A, “2-Alkyl-3-haloisothiazolium salts and their derivatives” (Givaudan Corporation, priority 1978, dated 1981).

≈ marks a conversion by molar mass, not a printed value. Like-named read-outs stand apart in the source and are kept apart here. A value given as a limit tells only on which side of the number the result lay.

Common to all, as to type: cell-based
One assay relates to Aureobasidium pullulans. In words: preservative for latex paints. The following applies: for zone of inhibition at 0.25 % / zone of inhibition at 0.5 %: Aureobasidium pullulans, 504 h; for Surface (growth on the surface of painted square): none, medium or heavy; for Zone (zone of inhibition): listed as CH3, Cl, Cl. On the procedure: Various quantities of the chemical were incorporated into a white exterior vinyl acetate paint. Whatman #30 filter paper was painted with one coat of paint on each side. One inch squares were cut and placed in Petri dishes on a malt agar.
The surface of both the agar and the painted squares were inoculated with a spore suspension of Aureobasidium pullulans. The plates were examined for zones of inhibition and surface growth after three weeks incubation in a humidity chamber at 27°-28°.
Various quantities of 4,5-dichloro-2-methyl-4-isothiazolin-3-thione were incorporated into a white exterior vinyl acetate paint and tested as described in Example IV.

The next assay deals with Ps. aeruginosa. In words: preservative for cutting oil emulsions. The following applies: for Minimum Inhibitory Concentration: listed as CH3, Cl, Cl; for MIC: Pseudomonas aeruginosa. As for the experimental part:
Various aliquots of a 6% solution of the chemical in ethanol were added to cutting oil emulsions prepared by diluting Kutwell 30 cutting oil concentrate 1 to 30 with water. These samples were inoculated with a culture of Ps. aeruginosa and incubated at 28° on a rotary shaker. At weekly intervals the samples were examined for microorganisms and then reinoculated and incubated.

For the next assay, the system named is P. aeruginosa. The experiment in a line: slimicide for pulp and paper mill water systems, P. aeruginosa. To be noted: for MIC: Pseudomonas aeruginosa, read-out: Minimum inhibitory concentration. As for the experimental part:
(§1) Various quantities of a 6% solution of this compound in dimethylformamide were incorporated into 24 ml of a test substrate composed as follows:
(§2) 8.4 g Whatman No. 2 cellulose
(§3) 1.0 g Nutrient Broth, Difco
(§4) 10.0 ml Mersize Rm 70R (Monsanto)
(§5) The samples were inoculated with four different organisms and incubated at 28° C. At weekly intervals the samples were examined for the presence of microbial growth and reinoculated during a total incubation period of four weeks.
(§6) The test of Example V was used to determine the effectiveness of 4,5-dichloro-3-dicyanomethylene-2-methyl-4-isothiazoline as a slimicide.

The next assay has as its system E. aerogenes. In words: slimicide for pulp and paper mill water systems, E. aerogenes. To be noted: for MIC: Klebsiella aerogenes. On the procedure:
as §1, §2, §3, §4, §5, §6

The subject of a further assay is P. piscarium. In words: slimicide for pulp and paper mill water systems, P. piscarium. On the procedure: as §1, §2, §3, §4, §5, §6
In another assay the test system is A. niger. The experiment in a line: slimicide for pulp and paper mill water systems, A. niger. The following applies: for MIC: Aspergillus niger, read-out: Minimum inhibitory concentration. On the procedure: as §1, §2, §3, §4, §5, §6
[1] abbreviates: Conc. 0.25% in vinyl acetate paint, three weeks, 27°-28°, read-out: Zone (zone of inhibition).
Where [2] appears, read: Conc. 0.5% in vinyl acetate paint, three weeks, 27°-28°, read-out: Zone (zone of inhibition).
The mark [3] stands for this setting: Conc. 0.25% in vinyl acetate paint, three weeks, 27°-28°.
The mark [4] stands for this setting: Conc. 0.5% in vinyl acetate paint, three weeks, 27°-28°.
Where [5] appears, read: read-out: Zone (zone of inhibition), Conc. 0.5% in vinyl acetate paint, three weeks, 27°-28°.
The mark [6] stands for this setting: read-out: Zone (zone of inhibition), Conc. 0.25% in vinyl acetate paint, three weeks, 27°-28°.
[7] abbreviates: 168 h, read-out: Minimum Inhibitory Concentration, cutting oil emulsion, incubation 1 week, 28°.
Where [8] appears, read: 336 h, read-out: Minimum Inhibitory Concentration, cutting oil emulsion, incubation 2 weeks, 28°.
Where [9] appears, read: 168 h, cutting oil emulsion, incubation 1 week, 28°, read-out: Minimum Inhibitory Concentration.
[10] abbreviates: 336 h, cutting oil emulsion, incubation 2 weeks, 28°, read-out: Minimum Inhibitory Concentration.
[11] abbreviates: 504 h, cutting oil emulsion, incubation 3 weeks, 28°, read-out: Minimum Inhibitory Concentration.
[12] abbreviates: 672 h, cutting oil emulsion, incubation 4 weeks, 28°, read-out: Minimum Inhibitory Concentration.

What is called zone of inhibition is the extent of the growth-free halo in a diffusion test. Take `CC[n+]1sc(Cl)c(Cl)c1Cl` [Et, Cl, Cl, Cl, O3SCF3]: the zone of inhibition at 0.25 % in the assay on Aureobasidium pullulans (setting [1]) came out at 20 mm. In the assay on Aureobasidium pullulans (setting [2]), the zone of inhibition at 0.5 % stood at 20 mm. Moreover, the “Surface (growth on the surface of painted square)” value with Aureobasidium pullulans (setting [3]) and in the assay on Aureobasidium pullulans (setting [4]) was “None” in each case.
`C[n+]1sc(Cl)c(Cl)c1Cl` [No. 1 (Table I), 2-Methyl-3,4,5-trichloroisothiazolium fluorosulfonate]: the zone of inhibition at 0.5 % in the assay on Aureobasidium pullulans (setting [5]) is more than 20 mm. For the same molecule, the “Zone (zone of inhibition)” value in the assay with Aureobasidium pullulans (Conc. 0.25% in vinyl acetate paint, three weeks, 27°-28°, O3SF) came to 0 mm. Further, the “Minimum Inhibitory Concentration” value in the assay on Ps. aeruginosa (cutting oil emulsion, incubation 1 week, 28°, O3SF) was less than 16 µg/mL; in the assay on Ps. aeruginosa (cutting oil emulsion, incubation 2 weeks, 28°, O3SF), less than 16 µg/mL; with Ps. aeruginosa (cutting oil emulsion, incubation 3 weeks, 28°, O3SF) it was less than 16 µg/mL; in the assay on Ps. aeruginosa (cutting oil emulsion, incubation 4 weeks, 28°, O3SF) it was less than 16 µg/mL.
For `Cn1sc(Cl)c(Cl)c1=S` [No. 1 (Table VIII), 4,5-Dichloro-2-methyl-4-isothiazolin-3-thione], the zone of inhibition at 0.25 % in the assay on Aureobasidium pullulans (setting [6]) was found to be 20 mm. Also, in the assay on Aureobasidium pullulans (setting [5]), the zone of inhibition at 0.5 % stood at 20 mm. The “Surface (growth on the surface of painted square)” value in the assay on Aureobasidium pullulans (setting [3]) and with Aureobasidium pullulans (setting [4]) was “no growth” throughout. The MIC is less than 16 µg/mL with Ps. aeruginosa (setting [7]); 62 µg/mL (≈ 310 µM) in the assay on Ps. aeruginosa (setting [8]); 62 µg/mL (≈ 310 µM) in the assay on Ps. aeruginosa (504 h, read-out: Minimum Inhibitory Concentration, cutting oil emulsion, incubation 3 weeks, 28°); 62 µg/mL (≈ 310 µM) in the assay on Ps. aeruginosa (672 h, read-out: Minimum Inhibitory Concentration, cutting oil emulsion, incubation 4 weeks, 28°); 16 µg/mL (≈ 80 µM) in the assay on P. aeruginosa; less than 8 µg/mL in the assay with E. aerogenes (read-out: Minimum inhibitory concentration, E. aerogenes, week 1, 28° C.). The MIC with E. aerogenes (read-out: Minimum inhibitory concentration, E. aerogenes, week 2, 28° C.) was less than 8 µg/mL; with E. aerogenes (read-out: Minimum inhibitory concentration, E. aerogenes, week 3, 28° C.), 16 µg/mL (≈ 80 µM); in the assay with E. aerogenes (read-out: Minimum inhibitory concentration, E. aerogenes, week 4, 28° C.) it was 16 µg/mL (≈ 80 µM); in the assay with P. piscarium (read-out: Minimum inhibitory concentration, P. Piscarium, week 1, 28° C.), less than 8 µg/mL; in the assay with P. piscarium (read-out: Minimum inhibitory concentration, P. Piscarium, week 2, 28° C.), less than 8 µg/mL; with P. piscarium (read-out: Minimum inhibitory concentration, P. Piscarium, week 3, 28° C.) it was less than 8 µg/mL. The MIC was 16 µg/mL (≈ 80 µM) in the assay with P. piscarium (read-out: Minimum inhibitory concentration, P. Piscarium, week 4, 28° C.) and less than 8 µg/mL in the assay with A. niger. Besides, the Minimum Inhibitory Concentration in the assay on P. aeruginosa (P. aeruginosa, week 2, 28° C.) was 16 µg/mL; in the assay with P. aeruginosa (P. aeruginosa, week 3, 28° C.), 16 µg/mL; in the assay with P. aeruginosa (P. aeruginosa, week 4, 28° C.) it was 16 µg/mL; in the assay with A. niger (A. niger, week 2, 28° C.) it was less than 8 µg/mL; in the assay on A. niger (A. niger, week 3, 28° C.), less than 8 µg/mL; in the assay with A. niger (A. niger, week 4, 28° C.) it was less than 8 µg/mL.
Take `C[n+]1sc(Cl)c(Cl)c1Cl` [No. 3 (Table I), 2-Methyl-3,4,5-trichloroisothiazolium hexachloroantimonate]: the “Zone (zone of inhibition)” value in the assay on Aureobasidium pullulans (Conc. 0.25% in vinyl acetate paint, three weeks, 27°-28°, SbCl6) is on record as 20 mm; in the assay with Aureobasidium pullulans (Conc. 0.5% in vinyl acetate paint, three weeks, 27°-28°, SbCl6) it was 20 mm. The “Minimum Inhibitory Concentration” value is 2 µg/mL with Ps. aeruginosa (cutting oil emulsion, incubation 1 week, 28°, SbCl6); 2 µg/mL in the assay on Ps. aeruginosa (cutting oil emulsion, incubation 2 weeks, 28°, SbCl6); 2 µg/mL in the assay with Ps. aeruginosa (cutting oil emulsion, incubation 3 weeks, 28°, SbCl6); 64 µg/mL in the assay on Ps. aeruginosa (cutting oil emulsion, incubation 4 weeks, 28°, SbCl6).
Take `C[n+]1scc(Cl)c1Cl` [No. 22 (Table I), 3,4-Dichloro-2-methylisothiazolium fluorosulfonate]: the zone of inhibition at 0.25 % with Aureobasidium pullulans (setting [6]) turned out to be 0 mm. Also, the zone of inhibition at 0.5 % with Aureobasidium pullulans (setting [5]) came out at 0 mm. Besides, the MIC in the assay on Ps. aeruginosa (setting [7]) and in the assay with Ps. aeruginosa (setting [8]) was 32 µg/mL in each case. Besides, the “Minimum Inhibitory Concentration” value in the assay with Ps. aeruginosa (cutting oil emulsion, incubation 3 weeks, 28°, H, O3SF) came out at 125 µg/mL; in the assay with Ps. aeruginosa (cutting oil emulsion, incubation 4 weeks, 28°, H, O3SF), 250 µg/mL.
Regarding `C[n+]1sc(Cl)c(C#N)c1Cl` [No. 26 (Table I), 4-Cyano-3,5-dichloro-2-methylisothiazolium fluorosulfonate], in the assay on Aureobasidium pullulans (setting [1]), the zone of inhibition at 0.25 % is 0 mm. In addition, the zone of inhibition at 0.5 % in the assay on Aureobasidium pullulans (setting [2]) stood at 0 mm. Also, the MIC with Ps. aeruginosa (setting [9]) is less than 16 µg/mL; with Ps. aeruginosa (setting [10]), 125 µg/mL; in the assay on Ps. aeruginosa (setting [11]) it was 250 µg/mL; in the assay on Ps. aeruginosa (setting [12]), 250 µg/mL.
As to `CN1SC(Cl)=C(Cl)C1=C(C#N)C#N` [drawing 12 CH3, Cl, Cl, 4,5-dichloro-3-dicyanomethylene-2-methyl-4-isothiazoline], the MIC worked out at 125 µg/mL (≈ 539 µM) with Ps. aeruginosa (setting [9]); 125 µg/mL (≈ 539 µM) with Ps. aeruginosa (setting [10]); 250 µg/mL (≈ 1080 µM) with Ps. aeruginosa (setting [11]); 250 µg/mL (≈ 1080 µM) in the assay with Ps. aeruginosa (setting [12]); 250 µg/mL (≈ 1080 µM) with P. aeruginosa (P. aeruginosa, week 1, 28° C.); 250 µg/mL (≈ 1080 µM) in the assay on E. aerogenes (E. aerogenes, week 1, 28° C., read-out: Minimum inhibitory concentration). The MIC came to 250 µg/mL (≈ 1080 µM) in the assay with P. piscarium (P. Piscarium, week 1, 28° C., read-out: Minimum inhibitory concentration); 250 µg/mL (≈ 1080 µM) in the assay with P. piscarium (P. Piscarium, week 2, 28° C., read-out: Minimum inhibitory concentration); 250 µg/mL (≈ 1080 µM) in the assay with P. piscarium (P. Piscarium, week 3, 28° C., read-out: Minimum inhibitory concentration); 500 µg/mL (≈ 2150 µM) with P. piscarium (P. Piscarium, week 4, 28° C., read-out: Minimum inhibitory concentration); 250 µg/mL (≈ 1080 µM) with A. niger (A. niger, week 1, 28° C.); 500 µg/mL (≈ 2150 µM) in the assay on A. niger (A. niger, week 2, 28° C.). Besides, the MIC with A. niger (A. niger, week 3, 28° C.) was 500 µg/mL (≈ 2150 µM); in the assay with A. niger (A. niger, week 4, 28° C.), 500 µg/mL (≈ 2150 µM). For the same molecule, the Minimum Inhibitory Concentration in the assay with P. aeruginosa (P. aeruginosa, week 2, 28° C.) was determined as 250 µg/mL; with P. aeruginosa (P. aeruginosa, week 3, 28° C.) it was 250 µg/mL; in the assay with P. aeruginosa (P. aeruginosa, week 4, 28° C.), 250 µg/mL; in the assay with E. aerogenes (E. aerogenes, week 2, 28° C.) it was 250 µg/mL; in the assay on E. aerogenes (E. aerogenes, week 3, 28° C.), 250 µg/mL; in the assay on E. aerogenes (E. aerogenes, week 4, 28° C.) it was 250 µg/mL.
